The source of these data is patent US11166934B2 (Azcuris Co., Ltd., priority 2017, dated 2021).

Assay [1] concerns TSLP-mediated phosphorylation of STAT5 in HMC-1 human mast cell line. As to the kind of experiment: Cell-based efficacy evaluation using FACS: intracellular phosphorylation of STAT5 after TSLP treatment of HMC-1 cells. The note with it: for Degrees of intracellular phosphorylation of STAT5 molecules (%): HMC-1 cells, TSLP 100 ng/mL, 30 min, control treated with TSLP alone = 100%. As to the method: The binding of TSLP to TSLP receptor activates various signaling pathways, mainly the JAK/STAT pathway. TSLP-mediated signaling is well known to specifically phosphorylate STAT5 among STAT molecules.
In this example, this fact was confirmed through the following experiment.
First, HMC-1, a human mast cell line, was cultured until an appropriate number of cells were maintained in a 96-well plate. […] Cells were fixed with Cytofix. Subsequently, cells were permeabilized with a permeabilization buffer and stained with anti-pSTAT5 antibody at 4° C. for 30 min. Cells were washed three times with the same buffer and analyzed by flow cytometry. […] The intracellular phosphorylation of STAT5 molecules in the control was 100%.

For assay [2], the target named is binding of TSLP to TSLPR (Homo sapiens, UniProt Q969D9). Kind of assay: ELISA-based TSLP-TSLPR interaction assay (FLAG-TSLP, TSLPR-His, HRP). The note with it: for inhibitory effects on the binding of TSLP to TSLP receptor (in words): treated alone.
Where [3] appears, read: read-out: TSLP-TSLPR inhibitions (%).

Where two headings read alike, the source gives them in different places.

Sequence of binding of TSLP to TSLPR (Q969D9 29-159): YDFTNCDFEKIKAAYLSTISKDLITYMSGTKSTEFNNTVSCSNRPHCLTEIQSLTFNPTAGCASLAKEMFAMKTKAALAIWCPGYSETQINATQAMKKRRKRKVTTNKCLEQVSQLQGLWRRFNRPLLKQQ

For the compound `O=c1cc(-c2ccccc2)oc2cc(O)c(O)c(O)c12` [Formula 1, baicalein], the “Degrees of intracellular phosphorylation of STAT5 molecules (%)” value came out at 65.7% in assay [1] (3 μM) and 61.6% in assay [1] (10 μM). The “effect on phosphorylation of STAT5 molecules (in words)” value in assay [1] (summary of Table 1) was “inhibit the phosphorylation of STAT5 molecules”. Moreover, the inhibition at 100 µM in assay [2] (read-out: TSLP-TSLPR inhibitions (%), 0.1 mM, Table 5) worked out at 3.2 ± 1.3%. In addition, the inhibition at 300 µM stood at 45.8 ± 0.7% in assay [2] (read-out: TSLP-TSLPR inhibitions (%), 0.3 mM, Table 2) and 16.5 ± 1.6% in assay [2] (read-out: TSLP-TSLPR inhibitions (%), 0.3 mM, Table 6).
On to `Oc1ccc(-c2[o+]c3cc(O)cc(O)c3cc2O)cc1` [Formula 2, pelargonidin chloride], for which, in assay [2] (setting [3]), the inhibition at 150 µM was 6.3 ± 0.1% and the inhibition at 300 µM was determined as 13.1 ± 5.8%.
With `O=c1c(O)c(-c2ccc(O)cc2)oc2cc(O)cc(O)c12` [Formula 3, kaempferol], in assay [2] (setting [3]), the inhibition at 150 µM amounted to 0.6 ± 3.7%.
For `O=C1/C(=C2\Nc3ccccc3C2=O)Nc2ccccc21` [Formula 4, indigo dye], the inhibition at 150 µM in assay [2] (setting [3]) was 3.5 ± 2.7%.
For the compound `CN(C)CCn1c(=O)c2nc(-c3ccccc3)oc2c2ccccc21` [Formula 5, 5-(2-(dimethylamino)ethyl)-2-phenyloxazolo[4,5-c]quinolin-4(5H)-one], in assay [2] (setting [3]), the inhibition at 100 µM is 6.5 ± 8.6%, the inhibition at 150 µM is 10.2 ± 17% and the inhibition at 300 µM came out at 21.6 ± 3.4%. Besides, the “inhibitory effects on the binding of TSLP to TSLP receptor (in words)” value in assay [2] was “insignificant inhibitory effects”.
As for `CN(C)CCOc1nc2ccccc2c2oc(-c3ccccc3)nc12` [Formula 6, N,N-dimethyl-2-((2-phenyloxazolo[4,5-c]quinolin4-yl)oxy)ethanamine], in assay [2] (setting [3]), the inhibition at 150 µM was found to be 5.4 ± 0.7% and the inhibition at 300 µM amounted to 19.3 ± 3%. Besides, the “inhibitory effects on the binding of TSLP to TSLP receptor (in words)” value in assay [2] is reported as “insignificant inhibitory effects”.
